# From BindingDB's records for doi:10.7270/Q2T15221 (Nmmlsc, 2010)
# pEC50: −log10 of the molar value.
# Biological target: Ras-related protein Rab-2A (Canis lupus familiaris, UniProt P61105)
# Assay: potency of blocking fluorescent GTP on Rab2A – biochemical, GST-Rab2 beads, Bodipy-FL-GTP, flow cytometry, multiplex, dose response (AID 1337)
# Ras-related protein Rab-2A, sequence (P61105 whole entry): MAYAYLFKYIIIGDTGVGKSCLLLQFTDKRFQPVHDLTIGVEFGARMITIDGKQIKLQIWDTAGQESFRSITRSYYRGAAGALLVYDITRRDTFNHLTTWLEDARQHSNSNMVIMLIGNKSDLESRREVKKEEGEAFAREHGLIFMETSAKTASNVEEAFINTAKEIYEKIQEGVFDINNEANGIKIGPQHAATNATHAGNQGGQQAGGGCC
row,Structure (SMILES),pEC50
1,O=C(O)c1ccccc1Sc1ncnc2sc3c(c12)CCC3,5.56
2,"OC(CNCCc1c[nH]c2ccccc12)Cn1c2ccc(Cl)cc2c2cc(Cl)ccc21 (stereo not drawn) [1-(3,6-dichloro-9-carbazolyl)-3-[2-(3H-indol-3-yl)ethylamino]-2-propanol]",4.58
3,Cc1nn(Cc2ccccc2)c(Cl)c1C(=O)O [1-benzyl-5-chloro-3-methyl-pyrazole-4-carboxylic acid],5.31
4,"Cc1cc(C)c(C)c(C(=O)c2ccccc2C(=O)O)c1C [2-(2,3,5,6-tetramethylbenzoyl)benzoic acid]",5.20
5,O=C(O)c1ccccc1NCCc1ccc(Cl)cc1 [2-[2-(4-chlorophenyl)ethylamino]benzoic acid],6.13
6,"Cc1ccc(C2=NN(S(=O)(=O)c3ccccc3)C(c3ccccc3O)C2)cc1 (stereo not drawn) [2-[2-(benzenesulfonyl)-5-(4-methylphenyl)-3,4-dihydropyrazol-3-yl]phenol]",5.77
7,"CC(C)C(NCc1c(Cl)cccc1Cl)C(=O)O (stereo not drawn) [2-[(2,6-dichlorobenzyl)amino]-3-methyl-butyric acid]",5.27
8,"COC(=O)c1c(-n2c(O)c3c(c2O)[C@]2(C(=O)Nc4c(C)cc(C)cc42)N2CCC[C@@H]32)sc(C)c1C [2-[(3S,3'aR,8'aS,8'bS)-5,7-dimethyl-1',2,3'-trioxo-2'-spiro[1H-indole-3,4'-3a,6,7,8,8a,8b-hexahydropyrrolo[3,4-a]pyrrolizine]yl]-4,5-dimethyl-3-thiophenecarboxylic acid methyl ester]",5.70
9,"COc1ccc(C2CC(c3ccccc3)=NN2c2ccc(S(N)(=O)=O)cc2)cc1 (stereo not drawn) [4-[3-(4-methoxyphenyl)-5-phenyl-3,4-dihydropyrazol-2-yl]benzenesulfonamide]",6.15
10,COc1ccc(-c2cc(C#N)nc(N3CCNCC3)n2)cc1 [6-(4-Methoxy-phenyl)-2-piperazin-1-yl-pyrimidine-4-carbonitrile],4.51
11,"O=C1C([N+](=O)[O-])=Cc2oc3c(c2C1/C=N/Cc1ccccc1)CCCC3 (stereo not drawn) [(1Z)-3-nitro-1-[[(phenylmethyl)amino]methylidene]-6,7,8,9-tetrahydrodibenzofuran-2-one]",5.40
12,"CCOc1ccc(/C=C2\SC(N3CCc4ccccc4C3)=NC2=O)cc1 [(5Z)-2-(3,4-dihydro-1H-isoquinolin-2-yl)-5-(4-ethoxybenzylidene)-2-thiazolin-4-one]",4.45
13,"CCCN1C(=O)/C(=C/C=C2\N(CC)c3ccccc3C2(C)C)SC1=S [(5Z)-5-[(2Z)-2-(1-ethyl-3,3-dimethyl-2-indolylidene)ethylidene]-3-propyl-2-sulfanylidene-4-thiazolidinone]",5.27
14,O=C(O)/C=C/c1cn(Cc2ccccc2)nc1-c1cccs1 [(E)-3-(1-benzyl-3-thiophen-2-ylpyrazol-4-yl)prop-2-enoic acid],5.44
15,Cc1ccccc1NC(=O)C1CCCN1S(=O)(=O)c1cccc2cccnc12 (stereo not drawn) [MLS000119085],5.46
16,N=C(N)NS(=O)(=O)c1ccc(NC(=S)NC(=O)c2ccc3c(c2)OCO3)cc1 [MLS000621545],6.13
17,CCS(=O)(=O)N1N=C(c2cccc(NS(C)(=O)=O)c2)CC1c1ccc(C)cc1 (stereo not drawn) [MLS000680398],5.57
18,COCCn1c(=S)[nH]c2cc(C(=O)N3CCc4ccccc4C3)ccc2c1=O [SMR000310652],6.07
